The results in this text go back to ChEMBL document CHEMBL4373702, “Intracellular Trapping of the Selective Phosphoglycerate Dehydrogenase (PHGDH) Inhibitor BI-4924 Disrupts Serine Biosynthesis” (J Med Chem, 2019).

Structures are written as SMILES.

In assay [1] the target is T1, D-3-phosphoglycerate dehydrogenase (Homo sapiens, UniProt O43175).
T1 sequence (O43175 whole entry): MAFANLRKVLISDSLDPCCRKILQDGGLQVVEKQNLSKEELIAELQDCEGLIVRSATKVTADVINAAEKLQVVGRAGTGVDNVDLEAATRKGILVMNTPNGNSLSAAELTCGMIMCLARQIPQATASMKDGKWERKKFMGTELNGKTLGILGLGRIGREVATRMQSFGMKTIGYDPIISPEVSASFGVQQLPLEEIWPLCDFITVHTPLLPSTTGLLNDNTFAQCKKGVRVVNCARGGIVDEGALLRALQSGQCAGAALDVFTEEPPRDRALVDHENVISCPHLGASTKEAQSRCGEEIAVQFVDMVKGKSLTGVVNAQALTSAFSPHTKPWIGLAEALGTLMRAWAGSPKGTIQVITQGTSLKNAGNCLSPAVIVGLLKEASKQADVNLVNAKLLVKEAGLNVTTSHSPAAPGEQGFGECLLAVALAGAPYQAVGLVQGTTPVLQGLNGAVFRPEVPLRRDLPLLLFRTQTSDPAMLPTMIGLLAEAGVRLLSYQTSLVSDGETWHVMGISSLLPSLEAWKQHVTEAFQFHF
Description: Inhibition of His6-tagged PHGDH (unknown origin) expressed in Escherichia coli BL21 assessed as effect on NADH fluorescence incubated for 60 mins using 3-PG as substrate in presence of 500 uM NAD+ and PSAT1 by diaphorase and resazurin dye based fluorescence assay. (Resazurin is reduced to fluorescent resorufin, in cell work by metabolically active cells.)

Assay [2] has as its target T1, D-3-phosphoglycerate dehydrogenase. Put plainly: Binding affinity to N-terminal His6-tagged human PHGDH (4 to 315 residues)by SPR assay. For orientation: In SPR one partner is held on a chip, and binding of the other changes the refractive index at the surface.
Assay [3] shares this target. Put plainly: Inhibition of N-terminal His6-tagged human PHGDH (4 to 315 residues) assessed as effect on NADH fluorescence incubated for 2 hrs using 3-PG substrate in presence of 19 uM NAD+ and PSAT1 by diaphorase based luminescence assay.
The target is the same in assay [4]. Put plainly: Inhibition of N-terminal His6-tagged human PHGDH (4 to 315 residues) assessed as effect on NADH fluorescence incubated for 2 hrs using 3-PG substrate in presence of 250 uM NAD+ and PSAT1 by diaphorase based luminescence assay.
The target is the same in assay [5]. Description: Binding affinity to human PHGDH ( 1 to 533 residues) expressed in Escherichia coli Rosetta (DE3) by Sypro-orange dye based differential scanning fluorimetry.

By IC50 is commonly meant the concentration that inhibits the measured activity by half. For `CC(=O)NS(=O)(=O)N1CCC(NC(=O)c2cc3c(Cl)c(Cl)ccc3n2C)C(CC(=O)O)C1` (configuration not stated), the IC50 in assay [1] lay within 0.01 to 1.5 µM.
As usually defined, the Kd is the free concentration of one partner at which half of the binding sites on the other are occupied at equilibrium, for simple one-to-one binding. As to `Cn1nc(-c2ccccc2)cc1C(=O)NC1CC1`, the Kd in assay [2] amounted to 105 µM.
Consider `C[C@@H](NC(=O)c1cc(-c2ccccc2)nn1C)c1ccc(C(=O)NS(C)(=O)=O)cc1`, for which, in assay [3], the IC50 was 0.3 µM.
In the case of `Cn1c(C(=O)NC(C(=O)O)c2ccccc2)cc2cc(Cl)ccc21` (racemic), the IC50 in assay [3] is greater than 100 µM.
Regarding `CC(NC(=O)c1cc(-c2ccccc2)nn1C)c1ccc(S(C)(=O)=O)cc1` (racemic), the IC50 in assay [3] was determined as 5.83 µM.
Turning to `C[C@@H](NC(=O)c1cc2cc(Cl)ccc2n1C)c1ccc(C(=O)O)cc1`, the IC50 in assay [3] came to 0.254 µM; in assay [4] it was 2.37 µM.
As for `Cn1c(C(=O)NC(C(N)=O)c2ccccc2)cc2cc(Cl)ccc21` (racemic), the IC50 in assay [3] is greater than 100 µM.
The same measure, in the same setting: to `Cc1cc(Cl)c2cc(C(=O)N[C@H](C)c3ccc(S(=O)(=O)CC(=O)O)cc3)n(C)c2c1` belongs 0.003 µM.
Regarding `C[C@@H](NC(=O)c1cc2c3ccccc3ccc2n1C)c1ccc(C(=O)O)cc1`, the IC50 in assay [3] was determined as 0.058 µM; in assay [4], 0.345 µM.
As for `C[C@@H](O)[C@@H](NC(=O)c1cc2cc(Cl)ccc2n1C)c1ccccc1`, the IC50 in assay [3] was determined as 12.1 µM.
The same measure, in the same setting: to `CC(NC(=O)c1cc(-c2ccccc2)nn1C)c1ccc(C#N)cc1` (racemic) belongs 33.7 µM; to `C[C@@H](NC(=O)c1cc(-c2ccccc2)nn1C)c1ccc(N(CC(=O)O)S(C)(=O)=O)cc1`, 1.4 µM.
In the case of `Cn1c(C(=O)NC(CN)c2ccccc2)cc2cc(Cl)ccc21` (racemic), the IC50 in assay [3] was 39.6 µM.
Regarding `C[C@@H](NC(=O)c1cc(-c2ccccc2)nn1C)c1ccc(S(=O)(=O)CC(=O)O)cc1`, the IC50 in assay [3] turned out to be 0.025 µM.
On to `CC(NC(=O)c1cc(-c2ccccc2)nn1C)c1ccc(S(N)(=O)=O)cc1` (racemic), for which, in assay [3], the IC50 came out at 4.3 µM.
Same read-out and setting: in the case of `C[C@@H](NC(=O)c1cc(-c2ccccc2)nn1C)c1ccc(C(N)=O)cc1` it was 3.1 µM.
For the molecule `C[C@@H](NC(=O)c1cc2c(Cl)cc(C(F)F)cc2n1C)c1ccc(C(=O)O)cc1`, the results for the IC50 in assay [3] and in assay [4] were 0.081 µM and 0.714 µM, respectively.
For the molecule `C[C@H](NC(=O)c1cc(-c2ccccc2)nn1C)c1ccccc1`, the IC50 in assay [3] is greater than 100 µM.
Consider `C[C@@H](NC(=O)c1cc(-c2ccccc2)nn1C)c1ccc(-c2cncnc2)cc1`, for which the IC50 in assay [3] came out at 21.5 µM.
For `C[C@@H](NC(=O)c1cc(-c2ccccc2)nn1C)c1ccc(NC(=N)N)cc1`, in assay [3], the IC50 was greater than 100 µM.
Consider `C[C@@H](NC(=O)c1cc2cc(Cl)c(Br)cc2n1C)c1ccc(C(=O)O)cc1`, for which the half-inhibitory concentration (IC50) in assay [3] was found to be 0.061 µM; in assay [4], 0.341 µM.
For `C[C@@H](NC(=O)c1cc(-c2ccccc2)nn1C)c1ccccc1`, the IC50 in assay [3] turned out to be 22 µM.
Consider `Cc1cc2c(cc(C(=O)N[C@H](C)c3ccc(S(=O)(=O)CC(=O)O)cc3)n2C)c(Cl)c1Cl`, for which the IC50 in assay [3] is 0.002 µM.
On to `C[C@@H](NC(=O)c1cc(-c2ccccc2)nn1C)c1ccc(N2C(=O)CNC2=O)cc1`, for which the IC50 in assay [3] is 2.3 µM.
In assay [5], `NC(=O)c1ccc(F)c(Cl)c1` yielded a Kd of 1500 µM.
`Cn1c(C(=O)Nc2cccc(C(=O)O)c2)cc2ccccc21`: in assay [2], the Kd stood at 144 µM.
Turning to `Cc1cc2c(cc1Cl)cc(C(=O)N[C@H](C)c1ccc(C(=O)O)cc1)n2C`, the values for the IC50 in assay [3] and in assay [4] were 0.051 µM and 0.412 µM, respectively.
On to `C[C@@H](NC(=O)c1cc(-c2ccccc2)nn1C)c1ccc(CO)cc1`, for which, in assay [3], the IC50 was 6 µM.
For `C[C@@H](NC(=O)c1cc2cc(Cl)cc(OC(F)(F)F)c2n1C)c1ccc(C(=O)O)cc1`, the IC50 in assay [3] turned out to be 0.824 µM; in assay [4], 6.69 µM.
With `C[C@@H](NC(=O)c1cc(-c2ccccc2)nn1C)c1ccc([N+](=O)[O-])cc1`, the IC50 in assay [3] is 55.4 µM.
As for `C[C@@H](NC(=O)c1cc(-c2ccccc2)nn1C)c1ccc(N(C)C(=N)N)cc1`, the IC50 in assay [3] is greater than 100 µM.
In the case of `CC(NC(=O)c1cc(-c2ccccc2)nn1C)c1ccc(CC(=O)O)cc1` (racemic), the IC50 in assay [3] was found to be 0.8 µM.
With `CC(NC(=O)c1cc(-c2ccccc2)nn1C)c1ccc(C(=O)O)cc1` (racemic), the IC50 in assay [3] was determined as 0.9 µM.
Still for that read-out and setting: to `Cn1nc(-c2ccccc2)cc1C(=O)NCc1ccc(C(=O)O)cc1` belongs 5.7 µM; to `CC(NC(=O)c1cc(-c2ccccc2)nn1C)c1ccc(N(C)S(C)(=O)=O)cc1` (racemic), 6.7 µM; to `C[C@@H](NC(=O)c1cc(-c2ccccc2)nn1C)c1ccc(N2CCCC2)cc1`, 42.1 µM.
The same measure, in the same setting: in the case of `C[C@@H](NC(=O)c1cc(-c2ccccc2)nn1C)c1ccc(N)cc1` it was 38.1 µM.
Regarding `Cc1cc(Cl)c2cc(C(=O)N[C@H](C)c3ccc(C(=O)O)cc3)n(C)c2c1`, the IC50 in assay [3] amounted to 0.028 µM; in assay [4], 0.246 µM.
Take `Cn1c(C(=O)NC(CO)c2ccccc2)cc2cc(Cl)ccc21` (racemic): the IC50 in assay [3] came to 5.2 µM.
Consider `Cc1cc2c(cc(C(=O)N[C@H](C)c3ccc(C(=O)O)cc3)n2C)c2ccccc12`, for which the IC50 in assay [3] was found to be 0.028 µM; in assay [4], 0.249 µM.
As for `CC(=O)NS(=O)(=O)c1ccc(C(C)NC(=O)c2cc(-c3ccccc3)nn2C)cc1` (racemic), in assay [3], the IC50 worked out at 0.07 µM.
With `C[C@@H](NC(=O)c1cc(-c2ccccc2)nn1C)c1ccc(N2CC[C@H](O)C2)cc1`, the IC50 in assay [3] is 12.2 µM.
Consider `CC(=O)NS(=O)(=O)c1ccc([C@@H](C)NC(=O)c2cc(-c3ccccc3)nn2C)cc1`, for which the IC50 in assay [3] turned out to be 0.1 µM.
In the case of `C[C@@H](NC(=O)c1cc(-c2ccccc2)nn1C)c1ccc(C(=O)O)cc1`, the IC50 in assay [3] is 0.4 µM.
As for `C[C@@H](NC(=O)c1cc(-c2ccccc2)nn1C)c1ccc(NS(C)(=O)=O)cc1`, in assay [3], the IC50 was 53.8 µM.
As for `Cn1c(C(=O)N[C@@H](c2ccccc2)[C@H](O)C(F)(F)F)cc2cc(Cl)ccc21` (relative stereo), in assay [3], the IC50 is greater than 100 µM.
Consider `Cc1cc2c(cc(C(=O)N[C@H](C)c3ccc(C(=O)O)cc3)n2C)c(Cl)c1Cl`, for which the concentration for half-maximal inhibition (IC50) in assay [3] is 0.014 µM; in assay [4], 0.095 µM.
`C[C@@H](NC(=O)c1cc(-c2ccccc2)nn1C)c1ccc(N2CCCS2(=O)=O)cc1`: the IC50 in assay [3] is 2.5 µM.
Turning to `Cn1c(C(=O)N[C@@H](c2ccccc2)[C@@H](O)C(F)(F)F)cc2cc(Cl)ccc21` (relative stereo), the IC50 in assay [3] is greater than 100 µM.
Consider `C[C@@H](NC(=O)c1cc2c(Cl)c(Cl)ccc2n1C)c1ccc(C(=O)O)cc1`, for which the IC50 stood at 0.03 µM in assay [3] and 0.228 µM in assay [4].
On to `C[C@@H](NC(=O)c1cc2ccccc2n1C)c1ccc(C(=O)O)cc1`, for which the IC50 in assay [3] was found to be 1.95 µM.
`COc1cc(F)c(Cl)c2cc(C(=O)N[C@H](C)c3ccc(C(=O)O)cc3)n(C)c12`: the IC50 is 0.123 µM in assay [3] and 1.29 µM in assay [4].
Consider `COCC(NC(=O)c1cc2cc(Cl)ccc2n1C)c1ccccc1` (racemic), for which, in assay [3], the IC50 was greater than 100 µM.
`Cn1nc(-c2ccccc2)cc1C(=O)NC(C)(C)c1ccc(C(=O)O)cc1`: in assay [3], the IC50 was 1.3 µM.
With `CCc1cc(Cl)c2cc(C(=O)N[C@H](C)c3ccc(C(=O)O)cc3)n(C)c2c1`, the results for the IC50 in assay [3] and in assay [4] were 0.03 µM and 0.301 µM, respectively.
Regarding `C[C@@H](NC(=O)c1cc(-c2ccccc2)nn1C)c1ccc(N2C[C@@H](O)[C@@H](O)C2)cc1`, in assay [3], the IC50 worked out at 5.2 µM.
For the molecule `C[C@H](O)[C@@H](NC(=O)c1cc2cc(Cl)ccc2n1C)c1ccccc1`, in assay [3], the IC50 was found to be 11.7 µM.
The same measure, in the same setting: in the case of `COc1ccc([C@@H](C)NC(=O)c2cc(-c3ccccc3)nn2C)cc1` it was 16.2 µM.
For the molecule `COc1cc(Cl)cc2cc(C(=O)N[C@H](C)c3ccc(C(=O)O)cc3)n(C)c12`, the IC50 in assay [3] stood at 0.072 µM; in assay [4] it was 0.746 µM.
With `C[C@@H](NC(=O)c1cc(-c2ccccc2)nn1C)c1ccc(N2C(=O)CC[C@H]2C(=O)O)cc1`, the IC50 in assay [3] turned out to be 0.1 µM.
Consider `Cn1nc(-c2ccccc2)cc1C(=O)NCc1ccccc1`, for which the IC50 in assay [3] was greater than 100 µM.
On to `C[C@@H](NC(=O)c1cc(-c2ccccc2)nn1C)c1ccc(N2CCCC2=O)cc1`, for which the IC50 in assay [3] came out at 3.3 µM.
Same read-out and setting: to `Cn1c(C(=O)NC(CCO)c2ccccc2)cc2cc(Cl)ccc21` (racemic) belongs 100 µM; to `Cc1ccc([C@@H](C)NC(=O)c2cc(-c3ccccc3)nn2C)cc1`, 23.2 µM.
